Reference: DBAASP
≈ marks a conversion by molar mass, not a printed value. Where “and” joins values, the source holds several entries; their conditions need not be identical. Identical values can stand only once. Values belong to the compound of their own block, whether it stands above or below them.

Assays:
Test in all cases: ≥ marks a high value that may be exact or a test limit, other limits are often not marked, values filed in µg/mL are converted to µM
[1] = test system: Bacillus subtilis ATCC 6633
[2] = test system: Salmonella enterica subsp. enterica serovar Enteritidis CVCC 3377
[3] = test system: Pseudomonas aeruginosa CICC 10419
[4] = test system: Escherichia coli O157:H7 CICC 21530
[5] = test system: Staphylococcus aureus ATCC 43300
[6] = test system: Escherichia coli CVCC 195
[7] = test system: Staphylococcus aureus ATCC 25923
[8] = test system: Streptococcus suis CVCC 606
[9] = test system: Salmonella enterica subsp. enterica serovar Choleraesuis CVCC 503
[10] = test system: Pseudomonas aeruginosa CICC 21630
[11] = test system: Salmonella enterica subsp. enterica serovar Typhimurium ATCC 14028
[12] = test system: Candida albicans CGMCC 2.2411
[13] = test system: Salmonella enterica subsp. enterica serovar Pullorum CVCC 1789
[14] = test system: Escherichia coli CVCC 1515
[15] = test system: Enterococcus faecium CMCC 1.2136
[16] = test system: Salmonella enterica subsp. enterica serovar Pullorum CVCC 1802
[17] = test system: Listeria ivanovii ATCC 19119
[18] = test system: Candida albicans JLC 30364
Staphylococcus aureus = test system: Staphylococcus aureus
Streptococcus sanguinis = test system: Streptococcus sanguinis
[19] = test system: Pseudomonas aeruginosa ATCC 27853
[20] = test system: Listeria monocytogenes EGD
[21] = test system: Escherichia coli ATCC 25922
[22] = test system: Candida albicans ATCC 18804
[23] = test system: Pseudomonas aeruginosa ATCC 10145
[24] = test system: Listeria monocytogenes ATCC 7644
Streptococcus agalactiae = test system: Streptococcus agalactiae
[25] = test system: Pseudomonas aeruginosa DFU3
[26] = test system: Mycobacterium tuberculosis
Shigella flexneri = test system: Shigella flexneri
[27] = test system: Escherichia coli ATCC 11775
[28] = test system: Salmonella enterica subsp. enterica serovar Typhi ATCC 6399
[29] = test system: Enterococcus faecalis ATCC 19433
[30] = test system: Staphylococcus epidermidis SAM 0020
[31] = test system: Bacillus subtilis ATCC 6051
[32] = test system: Mycobacterium tuberculosis H37Rv
[33] = test system: Staphylococcus aureus ATCC 29213
[34] = test system: Staphylococcus aureus IAM 1098
Escherichia coli ML-35 = test system: Escherichia coli ML-35
Escherichia coli D21 = test system: Escherichia coli D21
[35] = test system: Staphylococcus epidermidis ATCC 12228
Bacillus megaterium Bm11 = test system: Bacillus megaterium Bm11
[36] = test system: Serratia marcescens ATCC 8100

SMILES: CC(C)[C@H](NC(=O)CNC(=O)[C@H](CC(N)=O)NC(=O)[C@H](CCCN=C(N)N)NC(=O)[C@H](Cc1ccc(O)cc1)NC(=O)[C@@H](NC(=O)[C@@H](NC(=O)[C@H](CC(N)=O)NC(=O)[C@H](Cc1c[nH]c2ccccc12)NC(=O)[C@H](Cc1ccccc1)NC(=O)CN)C(C)C)C(C)C)C(=O)N[C@@H](CCCN=C(N)N)C(=O)N[C@H](C(=O)N[C@@H](Cc1cnc[nH]1)C(=O)N[C@@H](CCCN=C(N)N)C(=O)N[C@@H](CCCN=C(N)N)C(=O)N[C@@H](CC(N)=O)C(=O)O)C(C)C [GFWNVVYRNGVRVHRRN]
- MIC [1]: 30.1 µM (≈ 64 µg/mL)
- MIC [2]: 1.88 µM (≈ 4 µg/mL)
- MIC [3]: ≥ 60.1 µM
- MIC [4]: 30.1 µM (≈ 64 µg/mL)
- MIC [5]: > 60.1 µM
- MIC [6]: 30.1 µM (≈ 64 µg/mL)
- MIC [7]: 0.939 µM (≈ 2 µg/mL)
- MIC [8]: ≥ 60.1 µM
- MIC [9]: ≥ 60.1 µM
- MIC [10]: ≥ 60.1 µM
- MIC [11]: 60.1 µM (≈ 128 µg/mL)
- MIC [12]: ≥ 60.1 µM
- MIC [13]: ≥ 60.1 µM
- MIC [14]: ≥ 60.1 µM
- MIC [15]: 30.1 µM (≈ 64 µg/mL)
- MIC [16]: ≥ 60.1 µM
- MIC [17]: ≥ 60.1 µM

SMILES: CC[C@H](C)[C@H](NC(=O)[C@H](C)NC(=O)[C@H](CCCN=C(N)N)NC(=O)[C@H](CCCCN)NC(=O)[C@H](C)NC(=O)[C@H](CCC(N)=O)NC(=O)[C@H](CC(C)C)NC(=O)[C@H](CCCCN)NC(=O)[C@H](Cc1ccccc1)NC(=O)[C@H](CC(C)C)NC(=O)[C@H](CCCCN)NC(=O)[C@H](Cc1ccccc1)NC(=O)[C@@H](NC(=O)[C@@H](NC(=O)[C@H](CCCCN)NC(=O)[C@H](C)NC(=O)[C@H](C)NC(=O)[C@@H](N)CCCCN)[C@@H](C)O)C(C)C)C(=O)N[C@@H](CCC(=O)O)C(=O)N[C@@H](C)C(N)=O [KAAKTVFKLFKLQAKRAIEA]
- MIC [7]: 128 µM (≈ 289 µg/mL)
- MIC [19]: 128 µM (≈ 289 µg/mL)
- MIC [20]: ≥ 128 µM
- MIC [21]: 128 µM (≈ 289 µg/mL)

SMILES: CC[C@H](C)[C@H](NC(=O)[C@H](CC(C)C)NC(=O)[C@H](CCCCN)NC(=O)[C@H](CC(C)C)NC(=O)[C@H](C)NC(=O)CNC(=O)[C@H](CCCCN)NC(=O)[C@H](C)NC(=O)[C@H](CC(C)C)NC(=O)[C@H](C)NC(=O)CNC(=O)[C@H](Cc1c[nH]c2ccccc12)NC(=O)[C@@H](N)Cc1ccccc1)C(=O)N1CCC[C@H]1C(=O)N[C@@H](CO)C(=O)N[C@@H](CC(C)C)C(=O)N[C@@H](Cc1ccccc1)C(=O)N[C@@H](CO)C(=O)N[C@@H](CO)C(=O)N[C@@H](Cc1ccccc1)C(=O)N[C@@H](CO)C(=O)N[C@@H](CCCCN)C(=O)N[C@@H](CCCCN)C(=O)N[C@@H](CC(=O)O)C(=O)O [FWGALAKGALKLIPSLFSSFSKKD]
- MIC [22]: 19.1 µM (≈ 49.9 µg/mL)
- MIC [23]: ≥ 38.2 µM
- MIC [1]: ≥ 37.5 µM
- MIC [24]: 18.8 µM (≈ 49.1 µg/mL)
- MIC (Streptococcus agalactiae): 18.8 µM (≈ 49.1 µg/mL)
- MIC [25]: 18.8 µM and 25 µM
- MIC [26]: ≥ 33.1 µM
- MIC (Shigella flexneri): ≥ 37.5 µM
- MIC [27]: 19.1 µM (≈ 49.9 µg/mL)
- MIC [28]: ≥ 37.5 µM
- MIC [29]: 2.4 µM (≈ 6.27 µg/mL)
- MIC [30]: 4.8 µM (≈ 12.5 µg/mL)
- MIC [31]: 4.8 µM (≈ 12.5 µg/mL)
- MIC [32]: 22.1 µM (≈ 57.7 µg/mL)
- MIC [33]: 6.2 µM and > 3.1 µM
- MIC [34]: 2.4 µM (≈ 6.27 µg/mL)

SMILES: NC(N)=NCCC[C@H](NC(=O)[C@@H](N)CCCN=C(N)N)C(=O)N[C@@H](CCCN=C(N)N)C(=O)N1CCC[C@H]1C(=O)N[C@@H](CCCN=C(N)N)C(=O)N1CCC[C@H]1C(=O)N1CCC[C@H]1C(=O)N[C@@H](Cc1ccc(O)cc1)C(=O)N[C@@H](Cc1c[nH]c2ccccc12)C(=O)N1CCC[C@H]1C(=O)N[C@@H](CCCN=C(N)N)C(=O)N1CCC[C@H]1C(=O)N[C@@H](CCCN=C(N)N)C(=O)N1CCC[C@H]1C(=O)N1CCC[C@H]1C(=O)O [RRRPRPPYWPRPRPP]
- MIC (Escherichia coli ML-35): 4 µM (≈ 7.94 µg/mL)
- MIC (Escherichia coli D21): 2 µM (≈ 3.97 µg/mL)
- MIC [35]: > 64 µM
- MIC [11]: 16 µM (≈ 31.7 µg/mL)
- MIC (Bacillus megaterium Bm11): 16 µM (≈ 31.7 µg/mL)
- MIC [36]: 8 µM (≈ 15.9 µg/mL)

Next, values leading:

- MIC [1]: 1.6 µM and 4 µM
- MIC [18]: ≥ 32 µM
SMILES: CC(=O)N[C@@H](Cc1ccccc1)C(=O)N[C@@H](CCCCN)C(=O)N[C@@H](CCCCN)C(=O)N[C@@H](CC(C)C)C(=O)N[C@@H](CCCCN)C(=O)N[C@@H](CCCCN)C(=O)N[C@@H](CC(C)C)C(=O)N[C@@H](Cc1ccccc1)C(=O)N[C@@H](CO)C(=O)N[C@@H](CCCCN)C(=O)N[C@@H](CC(C)C)C(=O)N[C@@H](Cc1c[nH]c2ccccc12)C(=O)N[C@@H](CC(N)=O)C(=O)N[C@@H](Cc1c[nH]c2ccccc12)C(=O)N[C@@H](CCCCN)C(N)=O [FKKLKKLFSKLWNWK]

- MIC (Staphylococcus aureus): > 1090 µM
- MIC (Streptococcus sanguinis): ≥ 1090 µM
SMILES: NC(=O)[C@H](Cc1ccccc1)NC(=O)[C@H](Cc1ccccc1)NC(=O)[C@@H](N)Cc1ccccc1 [FFF]
